{"source": "paper PMC7255010", "about": "“Small-molecule activating SIRT6 elicits therapeutic effects and synergistically promotes anti-tumor activity of vitamin D3 in colorectal cancer” (Theranostics, 2020)", "key": {"[1]": {"test": "Pharmacokinetic studies in mice", "format": "in vivo", "details": "male, mouse, plasma, C57BL/6J mice", "experimental": "Pharmacokinetic studies were performed by Shanghai Medicilon Inc, China, following standard protocols. Briefly, six-week-old male C57BL/6J mice were grouped randomly (n = 5 per group). […] Two administration formulations were prepared in the vehicle with 5% DMSO, 10% Solutol and 85% saline, with the pH adjusted to 7.0-8.0. After treatment, the mice were sacrificed, and their plasma samples were collected at 5 min, 15 min, 30 min, 1 h, 2 h, 4 h, 8 h, and 24 h. The drug concentration in plasma was analyzed by LC-MS/MS. Pharmacokinetic parameters were calculated using Analyst Software 1.6.3 from mean plasma concentration-time profiles. The area under the curve (AUC) was measured from time versus concentration data by the linear trapezoidal rule. […] The calculation was normalized to relative doses."}, "[2]": {"system": "HCT116", "test": "Cell cycle analysis (PI staining, flow cytometry)", "format": "cell-based, human", "details": "for cell cycle phase distribution, G2/M: 48 h (0 µM: 20.4 ± 4.5); for cell cycle phase distribution, S: 48 h (0 µM: 30.1 ± 4.4); for cell cycle phase distribution, G0/G1: 48 h (0 µM: 49.5 ± 3.5)", "experimental": "Then, cells were collected and fixed with 75% ethanol at 4 °C overnight. The cells were incubated with RNase I (50 μg/mL) in 1× PBS at 37 °C for 30 min and stained with propidium iodide (50 μg/mL) for 15 min. The cells were analyzed by flow cytometry and FACS DIVA software, v6.2 (BD Biosciences). The cell cycle distribution was analyzed using FlowJo 7.6.1 software. The data are presented as the mean ± s.d. of three independent experiments."}, "[3]": {"system": "HCT116 xenograft tumors", "test": "HCT116 CDX model", "format": "in vivo, BALB/c nude mice", "details": "20 or 30 mg/kg intraperitoneally every other day for 16 days", "experimental": "All animal studies were performed following federal and institutional guidelines approved by the Institutional Animal Care and Use Committee at Shanghai Jiao-Tong University School of Medicine. To establish the CDXs, HCT116 cells (1 × 10^6) suspended in 100 μL of 1× PBS were injected subcutaneously into the flanks of six-week-old male BALB/c nude mice. To establish the PDXs, primary tumors resected from two independent CRC patients (patient #1 and #2) were collected in the culture medium. The necrotic and supporting tissues were carefully removed using sterilized surgical blades. The gross tumor was cut into fragments (2-3 mm in diameter) and inoculated subcutaneously into the flanks of nude mice. The mice were monitored daily, and caliper measurements began when tumors became visible. The tumor volume was monitored every other day via calipers. The tumor volume was calculated using the following formula: (L × W ^2) / 2, where L and W refer to the tumor diameter along the longitudinal and transverse axes, respectively. When the mean tumor volume was approximately 100 to 250 mm^3, the mice were randomly grouped (n = 6 per group for CDXs, n = 8 per group for PDXs), and treatment was initiated. […] After treatment or if meeting the humane endpoint criteria, the mice were sacrificed by CO2 asphyxiation. The tumors were dissected, imaged, and weighed. […]"}, "[4]": {"system": "26 CRC cell lines", "test": "Cell proliferation, CCK-8, panel of 26 CRC cell lines", "format": "cell-based", "details": "Homo sapiens, CCK-8, 48 h", "experimental": "Cell proliferation was evaluated using a Cell Counting Kit-8 (CCK-8) (Dojindo) following the manufacturer's instructions. Briefly, CRC cells were plated in 96-well plates at a density of 5 × 10^3 cells per well. […] Cells treated with DMSO were used as the […] controls, and the final DMSO concentration in the medium was 0.1%. After 48 h of treatment, 10 μL of CCK-8 solution was added to every well and incubated for 1 h at 37 °C. Then, a microplate reader (Synergy H4 Hybrid Reader, BioTek) was used to measure the absorbance of the solvent at 450 nm. The background of drug and culture medium has been deducted in each well. The relative cell proliferation of each treatment group was expressed as the percentage change relative to the […] control group. Each data point is the mean ± s.d. of two or three independent experiments."}, "[5]": {"system": "HCT116, HT29, and LOVO cells", "test": "Combination drug treatment, CCK-8, Chou-Talalay combination index", "format": "cell-based, human", "details": "MDL-811 (5 to 10 μM) plus 1,25(OH)2D3 (1 to 10 μM), 48 h, three CRC cell lines; CI < 1 = synergism", "experimental": "1,25(OH)2D3 was purchased from TargetMol. For cell proliferation assays, 1,25(OH)2D3 was dissolved in DMSO, stored at -20 °C and protected from light. The maximum final DMSO concentration used in all treatment conditions was 0.25%. […] Then, cell proliferation assays were performed using the CCK-8 method. Combination effects were analyzed by the Chou-Talalay combination index (CI) method. The CI values and the fraction of cells affected values were generated using CompuSyn Version 1.0 software. CI values of < 1, = 1, and > 1 indicate synergism, additivity, and antagonism between the drugs, respectively."}, "[6]": {"system": "CRC cells (HCT116, HT29, and SW480)", "test": "Calcein-AM/PI live-dead double staining", "format": "cell-based", "details": "10 μM MDL-811, CRC cells", "experimental": "Live-dead cell staining was performed following the protocol of a Calcein-AM/PI Double Stain Kit (Yeasen). Briefly, 3 × 10^4 cells per well were seeded into 24-well plates. […] Then, cell images were acquired with a fluorescence microscope (Nikon Inverted Research Microscope Eclipse Ti). For each assay, five random fields of view per well were imaged at 10× magnification."}, "[7]": {"system": "CYP24A1", "test": "RT-qPCR of CYP24A1 mRNA in CRC cells", "format": "cell-based, human", "experimental": "Total RNA was extracted with TRIzol reagent (Invitrogen) according to the manufacturer's instructions. For cDNA synthesis, 1 μg of total RNA was reverse transcribed using a FastKing RT Kit (Tiangen). RT-qPCRs were run in triplicate using SYBR Green master mix (Roche) in an ABI 7900 Thermal Cycler (Applied Biosystems) according to the manufacturer's instructions. RT-qPCRs were performed in triplicate, and the mean cycle threshold (Ct) values were calculated for expression analysis. The mRNA levels of target genes were calculated using the 2^-ΔΔCt method. The expression data were normalized to β-actin expression levels and are presented as the mean ± s.e.m. of three independent experiments."}, "[8]": {"details": "30 mg/kg, IP 30 mg/mL, mean of five mice"}}, "note": "Where two headings read alike, the source gives them in different places.", "data": [{"smiles": "Cc1cc(F)c(Br)cc1NS(=O)(=O)c1ccc(NS(=O)(=O)c2cc(Cl)cc(Cl)c2)cc1CN1CCOC[C@H]1C", "note": "[MDL-811]", "values": [{"measurement": "AUC(0-inf)", "setting": "[1]; [8]", "result": 19700, "unit": "ng·h/mL"}, {"measurement": "half-life", "setting": "[1]; [8]", "result": 1.38, "unit": "h"}, {"measurement": "AUC0-t", "setting": "[1]; 30 mg/kg, IP 30 mg/mL, mean of five mice, read-out: AUC0-t", "result": 19600, "unit": "ng·h/mL"}, {"measurement": "Cmax", "setting": "[1]; 30 mg/kg, IP 30 mg/mL, mean of five mice, read-out: Cmax", "result": 5330, "unit": "ng/mL"}, {"measurement": "MRT", "setting": "[1]; 30 mg/kg, IP 30 mg/mL, mean of five mice, read-out: MRT", "result": 2.63, "unit": "h"}, {"measurement": "tmax", "setting": "[1]; 30 mg/kg, IP 30 mg/mL, mean of five mice, read-out: tmax", "result": 0.5, "unit": "h"}, {"measurement": "bioavailability", "setting": "[1]; intraperitoneal, IP 30 mg/mL vs IV, ratio of AUC normalized to dose, read-out: F (bioavailability)", "result": 93, "unit": "%"}, {"measurement": "cell cycle phase distribution, G2/M", "setting": "[2]; HCT116, 5 µM", "result": "17.9 ± 4.0"}, {"measurement": "cell cycle phase distribution, S", "setting": "[2]; HCT116, 5 µM", "result": "19.0 ± 2.3"}, {"measurement": "cell cycle phase distribution, G0/G1", "setting": "[2]; HCT116, 5 µM", "result": "63.2 ± 2.1"}, {"measurement": "cell cycle phase distribution, G2/M", "setting": "[2]; HCT116, 10 µM", "result": "14.1 ± 3.8"}, {"measurement": "cell cycle phase distribution, S", "setting": "[2]; HCT116, 10 µM", "result": "19.0 ± 4.3"}, {"measurement": "cell cycle phase distribution, G0/G1", "setting": "[2]; HCT116, 10 µM", "result": "66.9 ± 1.4"}, {"measurement": "tumor growth", "setting": "[3]", "result": "strongly suppressed tumor growth in a dose-dependent manner"}, {"measurement": "IC50", "setting": "[4]; more than 75% (20 of 26) of the CRC cell lines, read-out: IC50 in 20 of 26 CRC cell lines", "result": "< 25", "unit": "µM"}, {"measurement": "IC50", "setting": "[4]; range over 26 CRC cell lines, read-out: IC50 values across the 26 CRC cell lines", "result": "4.7 to 61", "unit": "µM"}, {"measurement": "CI values (Chou-Talalay)", "setting": "[5]", "result": "< 1"}, {"measurement": "cell death, live-dead double staining", "setting": "[6]", "result": "did not cause observable cell death"}, {"measurement": "1,25(OH)2D3-enhanced CYP24A1 transcription, cotreatment", "setting": "[7]; HCT116 and HT29 cells, MDL-811 (5 µM) plus 1,25(OH)2D3 (5 µM), 48 h", "result": "effectively abolished"}, {"measurement": "CYP24A1 mRNA expression levels", "setting": "[7]; HCT116 cells, 10 µM MDL-811, 48 h", "result": "markedly decreased CYP24A1 mRNA expression levels"}]}]}
